Laboratory results from patent US20240368173A1, “TRICYCLIC GPR65 MODULATORS” (PATHIOS THERAPEUTICS LIMITED, priority 2021, published 2024).
Read-outs that look alike come from different tables or passages of the source.

Target: human recombinant GPR65 (Homo sapiens, UniProt Q8IYL9)
Assay: Human GPR65 cAMP HTRF antagonist assay
Type: cell-based
In short: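 Antagonism measured as suppression of the cAMP rise when pH is dropped to 7.2 (control wells pH 7.9) in 1321N1 cells stably carrying human GPR65. Cells in KRH with 1 mM IBMX and 200 μM EDTA saw compound 30 min, then acid stimulation 30 min; HTRF cAMP detection, normalised, 4-parameter logistic IC50.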

[1] = 1321N1-hrGPR65 cells, cAMP HTRF, assay pH 7.2, read-out: hGPR65 IC50 (Activity of selected compounds according to the invention)

Chain of human recombinant GPR65 (Q8IYL9 whole entry): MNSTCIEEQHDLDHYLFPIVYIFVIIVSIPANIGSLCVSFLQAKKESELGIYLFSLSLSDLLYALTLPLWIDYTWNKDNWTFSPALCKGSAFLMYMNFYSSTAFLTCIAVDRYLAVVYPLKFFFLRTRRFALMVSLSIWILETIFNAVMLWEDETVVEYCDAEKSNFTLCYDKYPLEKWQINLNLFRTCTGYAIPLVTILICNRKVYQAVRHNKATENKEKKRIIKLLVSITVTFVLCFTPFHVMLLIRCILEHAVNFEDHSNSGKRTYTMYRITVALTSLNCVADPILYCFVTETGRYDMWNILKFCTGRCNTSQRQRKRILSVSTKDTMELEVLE

O=C(Nc1cc(Cl)c(C2CC2)cc1F)N1[C@H]2CC[C@@H]1c1ccnc(F)c1C2 [Compound 63, (5R,8S)-N-(5-Chloro-4-cyclopropyl-2-fluorophenyl)-1-fluoro-6,7,8,9-tetrahydro-5H-5,8-epiminocyclohepta[c]pyridine-10-carboxamide]
IC50: < 500 nM

O=C(Nc1cc(Cl)c(Cl)cc1F)N1[C@H]2CC[C@@H]1c1c(C#CCO)cnc(F)c1C2 [Compound 107, (5R,8S)—N-(4,5-Dichloro-2-fluorophenyl)-1-fluoro-4-(3-hydroxyprop-1-yn-1-yl)-6,7,8,9-tetrahydro-5H-5,8-epiminocyclohepta[c]pyridine-10-carboxamide]
IC50 [1]: 500 to 5000 nM

O=C(Nc1cc(Cl)c(Cl)cc1F)N1[C@H]2CC[C@@H]1c1ncc(F)cc1C2 [Compound 98, (6S,9R)-N-(4,5-Dichloro-2-fluorophenyl)-3-fluoro-6,7,8,9-tetrahydro-5H-6,9-epiminocyclohepta[b]pyridine-10-carboxamide]
IC50: < 500 nM

O=C(Nc1ccc(Br)c(C(F)(F)F)c1)N1[C@H]2CC[C@@H]1c1n[nH]c(=O)cc1C2 [Compound 47, (6S,9R)-N-(4-Bromo-3-(trifluoromethyl)phenyl)-3-oxo-3,5,6,7,8,9-hexahydro-2H-6,9-epiminocyclohepta[c]pyridazine-10-carboxamide]
IC50: < 500 nM

O=C(Nc1cc(Cl)c(Cl)cc1F)N1C2CCC1c1ccnnc1C2 (racemic) [Compound 84, (±)-N-(4,5-Dichloro-2-fluorophenyl)-6,7,8,9-tetrahydro-5H-5,8-epiminocyclohepta[c]pyridazine-10-carboxamide]
IC50: < 500 nM

O=C(Nc1cc(Cl)c(C(F)(F)F)cc1F)N1C2CCC1[C@@H](O)c1c2ccnc1F (mixture of isomers) [Compound 156, (±)-(9S)—N-(5-chloro-2-fluoro-4-(trifluoromethyl)phenyl)-1-fluoro-9-hydroxy-6,7,8,9-tetrahydro-5H-5,8-epiminocyclohepta[c]pyridine-10-carboxamide]
IC50 [1]: 500 to 5000 nM

COc1ncc(-c2cc(F)c(NC(=O)N3[C@H]4CC[C@@H]3c3c[nH]c(=O)cc3C4)cc2Cl)cc1F [Compound 217, (6S,9R)-N-(5-Chloro-2-fluoro-4-(5-fluoro-6-methoxypyridin-3-yl)phenyl)-3-oxo-3,5,6,7,8,9-hexahydro-2H-6,9-epiminocyclohepta[c]pyridine-10-carboxamide]
IC50: < 500 nM

Cn1nc2c(cc1=O)CC1CCC2N1C(=O)Nc1cc(Cl)c(Cl)cc1F (racemic) [Compound 83, (±)-N-(4,5-Dichloro-2-fluorophenyl)-2-methyl-3-oxo-3,5,6,7,8,9-hexahydro-2H-6,9-epiminocyclohepta[c]pyridazine-10-carboxamide]
IC50 [1]: 500 to 5000 nM

O=C(Nc1cc(-c2ccc3nonc3c2)c(C(F)(F)F)cc1F)N1[C@H]2CC[C@@H]1c1c[nH]c(=O)cc1C2 [Compound 259, (6S,9R)-N-(5-(Benzo[c][1,2,5]oxadiazol-5-yl)-2-fluoro-4-(trifluoromethyl)phenyl)-3-oxo-3,5,6,7,8,9-hexahydro-2H-6,9-epiminocyclohepta[c]pyridine-10-carboxamide]
IC50: < 500 nM

O=C(Nc1cc(Cl)c(-c2ccc3nonc3n2)cc1F)N1[C@H]2CC[C@@H]1c1n[nH]c(=O)cc1C2 [Compound 314, (6S,9R)-N-(4-([1,2,5]Oxadiazolo[3,4-b]pyridin-5-yl)-5-chloro-2-fluorophenyl)-3-oxo-3,5,6,7,8,9-hexahydro-2H-6,9-epiminocyclohepta[c]pyridazine-10-carboxamide]
IC50: < 500 nM

O=C(Nc1cc(Cl)c(Br)cc1F)N1[C@H]2CC[C@@H]1c1c[nH]c(=O)nc1C2 [Compound 23, (5R,8S)-N-(4-Bromo-5-chloro-2-fluorophenyl)-2-oxo-3,5,6,7,8,9-hexahydro-2H-5,8-epiminocyclohepta[d]pyrimidine-10-carboxamide]
IC50: < 500 nM

O=C(Nc1cc(Cl)c(Cl)cc1F)N1C2CCC1c1ncnc(F)c1C2 (racemic) [Compound 87, (±)—N-(4,5-Dichloro-2-fluorophenyl)-4-fluoro-6,7,8,9-tetrahydro-5H-6,9-epiminocyclohepta[d]pyrimidine-10-carboxamide]
IC50: < 500 nM

O=C1c2c(ccnc2F)C2CCC1N2C(=O)Nc1cc(Cl)c(Cl)cc1F (racemic) [Compound 155, (±)—N-(4,5-Dichloro-2-fluorophenyl)-1-fluoro-9-oxo-6,7,8,9-tetrahydro-5H-5,8-epiminocyclohepta[c]pyridine-10-carboxamide]
IC50: < 500 nM

Cc1nc2ccc(-c3cc(F)c(NC(=O)N4[C@H]5CC[C@@H]4c4ccnc(F)c4C5)cc3Cl)cc2o1 [Compound 205, (5R,8S)-N-(5-Chloro-2-fluoro-4-(2-methylbenzo[d]oxazol-6-yl)phenyl)-1-fluoro-6,7,8,9-tetrahydro-5H-5,8-epiminocyclohepta[c]pyridine-10-carboxamide]
IC50: < 500 nM

COCc1ccncc1-c1cc(F)c(NC(=O)N2[C@H]3CC[C@@H]2c2n[nH]c(=O)cc2C3)cc1Cl [Compound 192, (6S,9R)-N-(5-Chloro-2-fluoro-4-(4-(methoxymethyl)pyridin-3-yl)phenyl)-3-oxo-3,5,6,7,8,9-hexahydro-2H-6,9-epiminocyclohepta[c]pyridazine-10-carboxamide]
IC50 [1]: 500 to 5000 nM

N#Cc1nccc2c1C[C@@H]1CC[C@H]2N1C(=O)Nc1cc(Cl)c(Cl)cc1F [Compound 92, (5R,8S)-1-Cyano-N-(4,5-dichloro-2-fluorophenyl)-6,7,8,9-tetrahydro-5H-5,8-epiminocyclohepta[c]pyridine-10-carboxamide]
IC50: < 500 nM

O=C(Nc1cc(Cl)c(-c2ccc(OCCC(F)(F)F)nc2)cc1F)N1[C@H]2CC[C@@H]1c1n[nH]c(=O)cc1C2 [Compound 320, (6S,9R)-N-(5-Chloro-2-fluoro-4-(6-(3,3,3-trifluoropropoxy)pyridin-3-yl)phenyl)-3-oxo-3,5,6,7,8,9-hexahydro-2H-6,9-epiminocyclohepta[c]pyridazine-10-carboxamide]
IC50: < 500 nM

O=C(Nc1cc(Cl)c(Cl)cc1F)N1[C@H]2CC[C@@H]1c1c(O)cnc(F)c1C2 [Compound 104, (5R,8S)—N-(4,5-Dichloro-2-fluorophenyl)-1-fluoro-4-hydroxy-6,7,8,9-tetrahydro-5H-5,8-epiminocyclohepta[c]pyridine-10-carboxamide]
IC50: < 500 nM

N#Cc1ccc(-c2cc(F)c(NC(=O)N3[C@H]4CC[C@@H]3c3n[nH]c(=O)cc3C4)cc2Cl)cn1 [Compound 124, (6S,9R)-N-(5-Chloro-4-(6-cyanopyridin-3-yl)-2-fluorophenyl)-3-oxo-3,5,6,7,8,9-hexahydro-2H-6,9-epiminocyclohepta[c]pyridazine-10-carboxamide]
IC50: < 500 nM

O=C(Nc1c(F)cc(Cl)c(Cl)c1F)N1[C@H]2CC[C@@H]1c1n[nH]c(=O)cc1C2 [Compound 308, (6S,9R)-N-(3,4-Dichloro-2,6-difluorophenyl)-3-oxo-3,5,6,7,8,9-hexahydro-2H-6,9-epiminocyclohepta[c]pyridazine-10-carboxamide]
IC50 [1]: 500 to 5000 nM

O=C(Nc1cc(Cl)c(-c2ccc(OC3COC3)nc2)cc1F)N1[C@H]2CC[C@@H]1c1n[nH]c(=O)cc1C2 [Compound 275, (6S,9R)-N-(5-Chloro-2-fluoro-4-(6-(oxetan-3-yloxy)pyridin-3-yl)phenyl)-3-oxo-3,5,6,7,8,9-hexahydro-2H-6,9-epiminocyclohepta[c]pyridazine-10-carboxamide]
IC50: < 500 nM

O=C(Nc1cc(Cl)c(C(F)(F)F)cc1F)N1[C@@H]2CC[C@H]1c1c[nH]c(=O)nc1C2 [Compound 25, (5S,8R)-N-(5-Chloro-2-fluoro-4-(trifluoromethyl)phenyl)-2-oxo-3,5,6,7,8,9-hexahydro-2H-5,8-epiminocyclohepta[d]pyrimidine-10-carboxamide]
IC50 [1]: 500 to 5000 nM

O=C(Nc1cc(-c2ccc3nonc3c2)c(C(F)(F)F)cc1F)N1[C@H]2CC[C@@H]1c1n[nH]c(=O)cc1C2 [Compound 254, (6S,9R)-N-(5-(Benzo[c][1,2,5]oxadiazol-5-yl)-2-fluoro-4-(trifluoromethyl)phenyl)-3-oxo-3,5,6,7,8,9-hexahydro-2H-6,9-epiminocyclohepta[c]pyridazine-10-carboxamide]
IC50: < 500 nM

O=C(Nc1cc(Cl)c(-c2ccccc2)cc1F)N1[C@H]2CC[C@@H]1c1n[nH]c(=O)cc1C2 [Compound 113, (6S,9R)-N-(2-Chloro-5-fluoro-[1,1′-biphenyl]-4-yl)-3-oxo-3,5,6,7,8,9-hexahydro-2H-6,9-epiminocyclohepta[c]pyridazine-10-carboxamide]
IC50: < 500 nM

O=C(Nc1ccc(Cl)c(Br)c1)N1[C@H]2CC[C@@H]1c1n[nH]c(=O)cc1C2 [Compound 49, (6S,9R)-N-(3-Bromo-4-chlorophenyl)-3-oxo-3,5,6,7,8,9-hexahydro-2H-6,9-epiminocyclohepta[c]pyridazine-10-carboxamide]
IC50: < 500 nM

O=C(Nc1cc(Br)c(C(F)(F)F)cc1F)N1C2CCC1c1c[nH]c(=O)nc1C2 (racemic) [Compound 17, (±)-N-(5-bromo-2-fluoro-4-(trifluoromethyl)phenyl)-2-oxo-3,5,6,7,8,9-hexahydro-2H-5,8-epiminocyclohepta[d]pyrimidine-10-carboxamide]
IC50: < 500 nM

CO[C@H]1CC[C@@H](Oc2ccc(-c3cc(F)c(NC(=O)N4[C@H]5CC[C@@H]4c4n[nH]c(=O)cc4C5)cc3Cl)cn2)CC1 [Compound 343, (6S,9R)-N-(5-Chloro-2-fluoro-4-(6-(((1s,4s)-4-methoxycyclohexyl)oxy)pyridin-3-yl)phenyl)-3-oxo-3,5,6,7,8,9-hexahydro-2H-6,9-epiminocyclohepta[c]pyridazine-10-carboxamide]
IC50: < 500 nM

O=C(Nc1cc(Br)c(Cl)cc1F)N1[C@H]2CC[C@@H]1c1c[nH]c(=O)nc1C2 [Compound 26, (5R,8S)-N-(5-Bromo-4-chloro-2-fluorophenyl)-2-oxo-3,5,6,7,8,9-hexahydro-2H-5,8-epiminocyclohepta[d]pyrimidine-10-carboxamide]
IC50: < 500 nM
